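How tested: cells in 96-well plates exposed to compound for 48 hours at five concentrations. GI50 marks 50% less growth.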 Active and inactive are the calls of the source. Cut-off read from the data, not from the text of the source: active = GI50 up to about 1.1 µM and inactive = higher.
Tests used:
Experiment in all cases: inhibition of tumour cell growth, NCI panel, 48 h
HCT-116 = system: HCT-116
TK-10 = system: TK-10
SNB-75 = system: SNB-75
DU-145 = system: DU-145
M14 = system: M14
SF-295 = system: SF-295
LOX IMVI = system: LOX IMVI
NCI/ADR-RES = system: NCI/ADR-RES
T47D = system: T47D
SK-OV-3 = system: SK-OV-3
CAKI-1 = system: CAKI-1
A549 = system: A549
MDA-N = system: MDA-N
NCI-H226 = system: NCI-H226
SK-MEL-28 = system: SK-MEL-28
CCRF-CEM = system: CCRF-CEM
OVCAR-3 = system: OVCAR-3
SF-539 = system: SF-539
MCF7 = system: MCF7
BT-549 = system: BT-549

Row | Compound | GI50 (HCT-116) | GI50 (TK-10) | GI50 (SNB-75) | GI50 (DU-145) | GI50 (M14) | GI50 (SF-295) | GI50 (LOX IMVI) | GI50 (NCI/ADR-RES) | GI50 (T47D) | GI50 (SK-OV-3) | GI50 (CAKI-1) | GI50 (A549) | GI50 (MDA-N) | GI50 (NCI-H226) | GI50 (SK-MEL-28) | GI50 (CCRF-CEM) | GI50 (OVCAR-3) | GI50 (SF-539) | GI50 (MCF7) | GI50 (BT-549)
1 | O=C1C(Cl)=C(N2CCSCC2)C(=O)c2c(O)ccc(O)c21 | 0.307 µM (active) | 0.465 µM (active) | 1 µM (active) | 0.802 µM (active) | 0.33 µM (active) | 0.1 µM (active) | 0.186 µM (active) | 0.1 µM (active) | 0.662 µM (active) | 0.581 µM (active) | 0.528 µM (active) | 0.469 µM (active) | 0.33 µM (active) | 0.347 µM (active) | 0.857 µM (active) |  |  |  |  | 
2 | O=C1/C(=C/c2ccc(Oc3ccccc3)cc2)N=C(c2ccccc2)N1c1ccc(S(=O)(=O)Nc2nccs2)cc1 | 10.7 µM (inactive) | 26.8 µM (inactive) | 7.53 µM (inactive) | 47 µM (inactive) | 15.3 µM (inactive) | 22.8 µM (inactive) | 21.5 µM (inactive) | 13.1 µM (inactive) | 12.8 µM (inactive) | 27.8 µM (inactive) | 21.7 µM (inactive) | 25.8 µM (inactive) | 3.22 µM (inactive) | 33.4 µM (inactive) | 22.8 µM (inactive) | 26.2 µM (inactive) | 17.3 µM (inactive) | 31.5 µM (inactive) | 14.3 µM (inactive) | 
3 | CN(C)CC1CCCC1=O (centres undefined) | 0.944 µM (active) | 2.96 µM (inactive) | 3.78 µM (inactive) | 17.5 µM (inactive) | 1.16 µM (inactive) | 19.8 µM (inactive) | 1.57 µM (inactive) | 20.7 µM (inactive) | 3.65 µM (inactive) | 15.3 µM (inactive) | 0.139 µM (active) | 24 µM (inactive) |  | 14.4 µM (inactive) | 2.98 µM (inactive) | 0.138 µM (active) | 1.51 µM (inactive) | 7.89 µM (inactive) | 0.408 µM (active) | 4.97 µM (inactive)
4 | Cc1ccc(S(=O)(=O)N/N=C2\C=C[C@]3(CC2)C(=O)N(C)c2ccccc23)cc1 | > 100 µM (inactive) |  | > 100 µM (inactive) | > 100 µM (inactive) | > 100 µM (inactive) | > 100 µM (inactive) | > 100 µM (inactive) | > 100 µM (inactive) | > 100 µM (inactive) | > 100 µM (inactive) | > 100 µM (inactive) | > 100 µM (inactive) | > 100 µM (inactive) | 69 µM (inactive) | > 100 µM (inactive) | > 100 µM (inactive) | > 100 µM (inactive) |  | > 100 µM (inactive) | 
5 | Cn1c(-c2cccc([N+](=O)[O-])c2)[n+](C)c2ccccc21 | > 100 µM (inactive) | > 100 µM (inactive) | > 100 µM (inactive) | > 100 µM (inactive) | > 100 µM (inactive) | > 100 µM (inactive) | > 100 µM (inactive) | > 100 µM (inactive) | > 100 µM (inactive) | > 100 µM (inactive) | > 100 µM (inactive) | 46.9 µM (inactive) |  | > 100 µM (inactive) | > 100 µM (inactive) | > 100 µM (inactive) | 30.8 µM (inactive) | > 100 µM (inactive) | > 100 µM (inactive) | > 100 µM (inactive)
6 | CC[C@]12C=CCN3CCC4(c5cc([C@@]6(C(=O)OC)CC7CN(CCc8c6[nH]c6ccccc86)CC6CCCCC67)c(OC)cc5N(C)C4[C@](O)(C(=O)OC)C1OC(C)=O)[C@@H]32 (some centres undefined) | < 0.01 µM (active) | 0.0643 µM (active) | < 0.01 µM (active) | < 0.01 µM (active) | < 0.01 µM (active) | < 0.01 µM (active) | < 0.01 µM (active) | 0.186 µM (active) |  | < 0.01 µM (active) | < 0.0252 µM (active) | < 0.01 µM (active) | < 0.01 µM (active) | < 0.01 µM (active) |  | < 0.01 µM (active) | < 0.01 µM (active) | < 0.01 µM (active) | < 0.01 µM (active) | 
7 | O=CCOCc1cc2c(cc1Br)OCO2 | 21.6 µM (inactive) | 52.1 µM (inactive) | 48.9 µM (inactive) | 28.2 µM (inactive) | 20.3 µM (inactive) | > 100 µM (inactive) | 19.6 µM (inactive) | 21 µM (inactive) | 21 µM (inactive) | > 100 µM (inactive) | 19.9 µM (inactive) | > 100 µM (inactive) | 37.2 µM (inactive) |  | 37.9 µM (inactive) | 9.93 µM (inactive) | 17.3 µM (inactive) | 25.2 µM (inactive) | 20.3 µM (inactive) | 
8 | Nc1nc(Cl)cc(OCC2(CO)CCCCC2)n1 | > 100 µM (inactive) | > 100 µM (inactive) | 66.1 µM (inactive) | > 100 µM (inactive) |  | > 100 µM (inactive) | > 100 µM (inactive) | > 100 µM (inactive) |  |  |  | 69.7 µM (inactive) | > 100 µM (inactive) | > 100 µM (inactive) | > 100 µM (inactive) | > 100 µM (inactive) | > 100 µM (inactive) | > 100 µM (inactive) | 50.5 µM (inactive) | 
